Results on six molecules are retold here after ChEMBL document CHEMBL5113536, “Triphosphate Prodrugs of the Anti-HIV-Active Compound 3'-Deoxy-3'-fluorothymidine (FLT)” (J Med Chem, 2022).

Series [1] deals with Human immunodeficiency virus 1. The experiment in a line: Antiviral activity against HIV1 HE strain infected in CEM/0 cells assessed as inhibition of HIV induced cytopathogenic effects. As to conditions: Human immunodeficiency virus 1, HE, CCRF-CEM. The format is functional, organism-based. Background: Cytopathic effects are the visible damage that an infection or toxin causes in cultured cells.

Series [2] can be described thus: Cytotoxicity in human CEM/0 cells assessed as reduction in cell viability. The series is classed as toxicity, cell-based. The note with it: CEM/0 cells (CCRF-CEM).
The subject of series [3] is Human immunodeficiency virus 2. The experiment in a line: Antiviral activity against […] HIV2 ROD infected in CEM-TK(-) cells assessed as inhibition of HIV induced cytopathogenic effects. The format is functional, organism-based. The note with it: Human immunodeficiency virus 2, ROD.
For series [4], the system named is Human immunodeficiency virus 2. Nature of the series: Antiviral activity against HIV2 ROD infected in CEM/0 cells assessed as inhibition of HIV induced cytopathogenic effects. The series is classed as functional, organism-based. As to conditions: Human immunodeficiency virus 2, ROD, CCRF-CEM.
A short description of series [5]: Chemical stability in PBS buffer assessed dephosphorylated half life measured after 24 hrs in presence of CEM/0 cell extract medium by RP-HPLC analysis relative to control. The format is physicochemical. As to conditions: human, PBS buffer with CEM/0 cell extract.
The target of series [6] is DNA polymerase beta (Homo sapiens) (UniProt P06746). The experiment in a line: Substrate activity at human DNA polymerase beta using 5'-Cy3-CGTTG GTCCT GAAGG AGGAT AGG1T-3' as primer and 3'-GCAACCAGGACTTCCTCCTATCCAAAGACA-5' as template incubated at 37 degree C for 60 mins and at 80 degreeC for 3 mins by primer extension assay. The note with it: time 63.0 min.
The test system of series [7] is Human immunodeficiency virus. The experiment in a line: Substrate activity at HIV reverse transcriptase assessed as DNA elongation using 5'-Cy3-CGTTG GTCCT GAAGG AGGAT AGG1T-3' as primer and 3'-GCAACCAGGACTTCCTCCTATCCAAAGACA-5' as template incubated at 37 degree C for 15 mins and at 80 degreeC for 3 mins by primer extension assay. As to conditions: time 18.0 min.

The nature of series [8]: Metabolic stability of the compound in mouse liver extract assessed as hydrolysis half life measured after 24 hrs in presence of mouse liver extract medium by RP-HPLC analysis. The format is ADME, tissue-based.
Series [9] concerns Human immunodeficiency virus. The experiment in a line: Substrate activity at HIV reverse transcriptase assessed as DNA elongation using 5'-Cy3-CGTTG GTCCT GAAGG AGGAT AGG1T-3' as primer and 3'-GCAACCAGGACTTCCTCCTATCCAAAGACA-5' as template incubated at 37 degree C for 15 mins and at 80 degreeC for 3 mins in presence of TTP by primer extension assay. The note with it: time 18.0 min.

Series [10] in a line: Chemical stability in PBS buffer assessed half life measured after 24 hrs in presence of CEM/0 cell extract medium by RP-HPLC analysis relative to control. The series is classed as physicochemical. As to conditions: human, PBS buffer with CEM/0 cell extract.
A short description of series [11]: Stability of the compound assessed as cleaved half life in presence of CEM/0 cell extract medium measured upto 25 hrs by RP-HPLC analysis. The format is physicochemical. The note with it: human.
The nature of series [12]: Metabolic stability of the compound in pig liver extract assessed as half life measured after 24 hrs in presence of pig liver extract medium by RP-HPLC analysis. The series is classed as ADME, tissue-based, Sus scrofa.
Series [13] is described as follows: Stability in PBS buffer assessed as clevage of first masking group half life in at pH 7.3 in presence of CEM/0 cell extract medium by RP-HPLC analysis. The series is classed as physicochemical. The note with it: human, PBS buffer with CEM/0 cell extract.
A short description of series [14]: Stability in buffer assessed as pig liver esterase-mediated clevage of first masking group half life at pH 7.3 by RP-HPLC analysis. The series is classed as ADME, tissue-based.
Series [15] in a line: Metabolic stability of the compound in mouse liver extract assessed as compound remaining measured after 24 hrs in presence of mouse liver extract medium by RP-HPLC analysis relative to control. The series is classed as ADME, tissue-based. As to conditions: read-out: Stability.

The structures appear in SMILES notation. pEC50: −log10 of the molar value. Activity calls are given as the source filed them. No cut-off for these calls is given here.

Broadly, the pEC50 is −log10 of the EC50, conventionally taken in molar units. In general, CC50 refers to the concentration that lowers cell viability or growth by half. For the molecule `Cc1cn([C@H]2C[C@H](F)[C@@H](CO)O2)c(=O)[nH]c1=O` [ALOVUDINE], the pEC50 is 8.80 in [1], 4.15 in series [3] and 8.49 in series [4]. In addition, the cytotoxic concentration (CC50) in series [2] was above 100000 nM.

Usually half-life stands for the time in which the quantity being followed falls by half. In the case of `Cc1cn([C@H]2C[C@H](F)[C@@H](COP(=O)(O)OP(=O)(O)OP(=O)(O)O)O2)c(=O)[nH]c1=O.N.N.N.N`, the figures for the half-life in series [5], in series [8] and in series [10] were 25.8 min, 5.04 min and 30 min, respectively. For the same molecule, the outcome in series [6], in series [7] and in [9] was Active.

On to `CCCCCCCCCCCCCCCCOP(=O)(OCc1ccc(OC(=O)CCC)cc1)OP(=O)(O)OP(=O)(O)OC[C@H]1O[C@@H](n2cc(C)c(=O)[nH]c2=O)C[C@@H]1F.N.N` (stereo partly drawn), for which the half-life in series [11] is 144 min; in [12] it was 0.582 min.

In the case of `CCCCCCCCCC(=O)Oc1ccc(COP(=O)(OCc2ccc(OC(=O)CCCCCCCCC)cc2)OP(=O)([O-])OP(=O)([O-])OC[C@H]2O[C@@H](n3cc(C)c(=O)[nH]c3=O)C[C@@H]2F)cc1.[Na+].[Na+]`, the half-life is 81 h in series [13], 3.16 min in [14] and 140 min in [11].

Take `CCCCCCCCCCCCCCCCOP(=O)(O)OP(=O)(O)OP(=O)(O)OC[C@H]1O[C@@H](n2cc(C)c(=O)[nH]c2=O)C[C@@H]1F`: in series [15], the remaining at 24 h is 39%.

As for `Cc1cn([C@H]2C[C@H](O)[C@@H](COP(=O)(O)OP(=O)(O)OP(=O)(O)O)O2)c(=O)[nH]c1=O` [DEOXYTHYMIDINE_TRIPHOSPHATE], the half-life was 25.8 min in series [5] and 30 min in series [10].
